# What was measured:
# PBMCs = assay: LPS-induced TNFα/IL-8 release in PBMC cells, assay (b); type: cell-based; details: Homo sapiens, LPS-stimulated PBMCs, read-out: IC50 Values for Inhibition of Cytokine Release, PBMCs IL-8
# Experimental: Peripheral blood mononuclear cells (PBMCs) from healthy subjects are separated from whole blood using a density gradient (Lymphoprep, Axis-Shield Healthcare). The PBMCs are seeded in 96 well plates and treated with compounds at the desired concentration for 2 hours before addition of 1 ng/mL LPS (Escherichia Coli 0111:B4 from Sigma Aldrich) for 24 hours under normal tissue culture conditions (37° C., 5% CO2). The supernatant is harvested for determination of IL-8 and TNFα concentrations by sandwich ELISA (Duo-set, R&D systems) and read on the fluorescence microplate reader (Varioskan® Flash, ThermoFisher Scientific).
# d-U937 cells = assay: Accumulation of β catenin in d-U937 cells, assay (m); type: cell-based, human
# Experimental: U937 cells, a human monocytic cell line, are differentiated into macrophage-type cells by incubation with PMA; (100 ng/mL) for between 48 to 72 hr. The cells are then incubated with either final concentrations of test compound or vehicle for 18 hr. The induction of β-catenin by the test compounds is stopped by replacing the media with 4% formaldehyde solution. Endogenous peroxide activity is neutralised by incubating with quenching buffer (100 μL, 0.1% sodium azide, 1% H2O2 in PBS with 0.05% Tween-20) for 20 min. The cells are washed with washing buffer (200 μL; PBS containing 0.05% Tween-20) and incubated with blocking solution (200 μL; 5% milk in PBS) for 1 hr, re-washed with washing buffer (200 μL) and then incubated overnight with anti-β-catenin antibody solution (50 μL) in 1% BSA/PBS (BD, Oxford, UK).
# After washing with washing buffer (3×200 μL; PBS containing 0.05% Tween-20), cells are incubated with an HRP-conjugated secondary antibody solution (100 μL) in 1% BSA/PBS (Dako, Cambridge, UK) and the resultant signal is determined colourimetrically (OD: 450 nm with a reference wavelength of 655 nm) using TMB substrate (50 μL; R&D Systems, Abingdon, UK). This reaction is stopped by addition of 1N H2SO4 solution (50 μL). Cells are then washed with washing buffer and 2% crystal violet solution (50 μL) is applied for 30 min. After washing with washing buffer (3×200 μL), 1% SDS (100 μL) is added to each well and the plates are shaken lightly for 1 hr prior to measuring the absorbance at 595 nm (Varioskan® Flash, Thermo-Fisher Scientific).
# The measured OD450-655 readings are corrected for cell number by dividing the OD450-655 by the OD595 readings. The percentage induction for each well is calculated relative to vehicle, and the ratio of induction normalised in comparison with the induction produced by a standard control comprising of N-(4-(4-(3-(3-tert-butyl-1-p-tolyl-1H-pyrazol-5-yl)ureido)naphthalen-1-yloxy)pyridin-2-yl)-2-methoxyacetamide (1 μg/mL) which is defined as 100%.
# [1] = test system: TNBS-induced colitis in mice; assay: TNBS-induced colitis in mice, in vivo assay (iv), conducted over 2 days; details: for Ulcer grade: TNBS + Vehicle 4.3 ± 0.2; for LP inflammation: TNBS + Vehicle 4.7 ± 0.1
# Experimental: Non-fasted, 10-12 week old, male BDF1 mice are dosed by oral gavage twice daily with either vehicle (5 mL/kg), reference item (Budesonide 2.5 mg/kg) or test compound (1 or 5 mg/kg) one day before (Day −1) stimulation of the inflammatory response by treatment with 2,4,6-trinitrobenzenesulphonic acid (TNBS) (15 mg/mL in 50% ethanol/50% saline). On Day 0 of the study TNBS (200 μL) is administered intra-colonically via a plastic catheter with BID dosing of the vehicle, reference or test compound continuing for 2 or 4 days. During the study animals are weighed every day and stool observations are made and recorded as a score, based on stool consistency. At the time of sacrifice on Day 2 (or Day 4) the large intestine is removed and the length and weight recorded. Sections of the colon are taken for histopathology scoring to determine disease severity.
# [2] = test system: intestinal mucosa biopsies from UC patients; assay: Human biopsy assay (l): cytokine release from intestinal mucosa biopsies of ulcerative colitis patients; type: cell-based; details: 1 μg/mL, 24 hours
# Experimental: Intestinal mucosa biopsies are obtained from the inflamed regions of the colon of IBD patients. The biopsy material is cut into small pieces (2-3 mm) and placed on steel grids in an organ culture chamber at 37° C. in a 5% CO2/95% O2 atmosphere in serum-free media. DMSO control or test compounds at the desired concentration are added to the tissue and incubated for 24 hr in the organ culture chamber. The supernatant is harvested for determination of IL-6, IL-8, IL-1β and TNFα levels by R&D ELISA. Percentage inhibition of cytokine release by the test compounds is calculated relative to the cytokine release determined for the DMSO control (100%).
# p38 MAPKα = p38 MAPKα (Homo sapiens (Human), UniProt Q16539); assay: p38 MAPKα enzyme inhibition (FRET, Z-LYTE), Method 2; type: biochemical
# Sequence of p38 MAPKα (Q16539 whole entry): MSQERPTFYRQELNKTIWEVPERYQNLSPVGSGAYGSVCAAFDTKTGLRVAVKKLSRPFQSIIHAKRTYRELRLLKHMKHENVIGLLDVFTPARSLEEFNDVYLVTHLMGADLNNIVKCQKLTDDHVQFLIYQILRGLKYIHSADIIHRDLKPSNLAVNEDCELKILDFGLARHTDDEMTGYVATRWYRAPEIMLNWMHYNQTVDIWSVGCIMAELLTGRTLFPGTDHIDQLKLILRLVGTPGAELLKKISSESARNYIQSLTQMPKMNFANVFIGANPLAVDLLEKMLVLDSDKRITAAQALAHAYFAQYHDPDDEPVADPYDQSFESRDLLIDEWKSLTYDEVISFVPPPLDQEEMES
# c-Src = c-Src (Homo sapiens (Human), UniProt P12931); assay: c-Src enzyme inhibition (FRET, Z-LYTE); type: biochemical
# Sequence of c-Src (P12931 whole entry, looked up): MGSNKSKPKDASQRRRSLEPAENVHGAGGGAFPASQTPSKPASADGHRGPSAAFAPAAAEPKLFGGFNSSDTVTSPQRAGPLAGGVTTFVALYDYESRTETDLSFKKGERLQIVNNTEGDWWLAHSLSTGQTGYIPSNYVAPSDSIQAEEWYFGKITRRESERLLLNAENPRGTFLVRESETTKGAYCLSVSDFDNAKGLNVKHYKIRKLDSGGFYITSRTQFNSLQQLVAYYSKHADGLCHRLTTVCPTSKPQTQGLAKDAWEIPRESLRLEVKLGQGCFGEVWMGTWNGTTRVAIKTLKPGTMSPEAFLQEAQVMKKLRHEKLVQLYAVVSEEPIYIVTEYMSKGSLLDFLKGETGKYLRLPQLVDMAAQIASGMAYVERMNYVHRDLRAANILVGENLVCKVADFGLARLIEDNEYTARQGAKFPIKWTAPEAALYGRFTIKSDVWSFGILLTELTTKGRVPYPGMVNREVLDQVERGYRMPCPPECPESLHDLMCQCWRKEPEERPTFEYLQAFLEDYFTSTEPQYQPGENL
# Experimental: The enzyme inhibitory activities of compounds disclosed herein are determined by FRET using synthetic peptides labelled with both donor and acceptor fluorophores (Z-LYTE, Invitrogen Ltd., Paisley, UK).
# The relevant enzyme (3000 ng/mL or 2000 ng/mL respectively, 2.5 μL) is incubated with the test compound (either 4 μg/mL, 0.4 μg/mL, 0.04 μg/mL, or 0.004 μg/mL, 2.5 μL each) for 2 hr at RT. The FRET peptides (8 μM, 2.5 μL), and appropriate ATP solutions (2.5 μL, 800 μM for c-Src, and 60 μM ATP for Syk) are then added to the enzymes/compound mixtures and incubated for 1 hr. Development reagent (protease, 5 μL) is added for 1 hr prior to detection in a fluorescence microplate reader (Varioskan® Flash, ThermoFisher Scientific).
# In all cases, the site-specific protease cleaves non-phosphorylated peptide only and eliminates the FRET signal. Phosphorylation levels of each reaction are calculated using the ratio of coumarin emission (donor) over fluorescein emission (acceptor), for which high ratios indicate high phosphorylation and low ratios indicate low phosphorylation levels.
# [3] = 1 μg/mL test compound, normalised to reference N-(4-(4-(3-(3-tert-butyl-1-p-tolyl-1H-pyrazol-5-yl)ureido)naphthalen-1-yloxy)pyridin-2-yl)-2-methoxyacetamide
# [4] = 5 μg/mL test compound, normalised to the same reference compound
# [5] = UC patient biopsies, DMSO control = 100%
SMILES,IC50 (PBMCs),% β-catenin induction (d-U937 cells; [3]),% β-catenin induction (d-U937 cells; [4]),"Ulcer grade ([1]; 1 mg/kg oral BID, mice, 2 days)","LP inflammation ([1]; 1 mg/kg oral BID, mice, 2 days)","Ulcer grade ([1]; 5 mg/kg oral BID, mice, 2 days)","LP inflammation ([1]; 5 mg/kg oral BID, mice, 2 days)","inflammatory cell infiltrate in the reticular and laminar propria zone ([1]; TNBS colitis, mice)","activity in in vivo model of colonic inflammation (histopathology analysis) ([1]; TNBS colitis, mice, 2 days)",ulcer grade and epithelial repair compared to the vehicle control ([1]; dosed orally at either 1 or 5 mg/kg),"IL-1β release [2, 5]","IL-6 release [2, 5]","IL-8 release [2, 5]","cytokine (IL-1β, IL-6 and IL-8) release compared to the DMSO control ([2]; biopsies from ulcerative colitis patients)",IC50 (p38 MAPKα),IC50 (c-Src),"% β-catenin induction (d-U937 cells; 10 μg/mL test compound, normalised to the same reference compound)"
"C#Cc1cc(Nc2nccc(Oc3ccc(NC(=O)Nc4cc(C(C)(C)C)nn4C)c4ccccc34)n2)cc(C(=O)NCCN2CCOCC2)c1 [Example 1, 3-((4-((4-(3-(3-(tert-Butyl)-1-methyl-1H-pyrazol-5-yl)ureido)naphthalen-1-yl)oxy)pyrimidin-2-yl)amino)-5-ethynyl-N-(2-morpholinoethyl)benzamide]",1.6 nM,−1.5%,10.5%,3.3 ± 0.5,4.2 ± 0.2,3.2 ± 0.5,2.4 ± 0.3,marked reduction,significant activity,marked improvements,3 ± 2%,8 ± 8%,2 ± 2%,significantly inhibited,–,–,–
"COCCOCCOCCOc1cc(Nc2nccc(Oc3ccc(NC(=O)Nc4cc(C(C)(C)C)nn4C)c4ccccc34)n2)cc(OC)c1 [Example 2, 1-(3-(tert-Butyl)-1-methyl-1H-pyrazol-5-yl)-3-(4-((2-((3-methoxy-5-(2-(2-(2-methoxy-ethoxy)ethoxy)ethoxy)phenyl)amino)pyrimidin-4-yl)oxy)naphthalen-1-yl)urea]",3.6 nM,−2%,6.5%,–,–,–,–,–,–,–,–,–,–,–,10 nM,5 nM,4.5%

# From patent US9771353B2, “Kinase inhibitors based upon N-alkyl pyrazoles” (RESPIVERT LIMITED, priority 2013, dated 2017)
